# Assay results as given in patent US10975056B2 (GlaxoSmithKline Intellectual Property Development Limited, priority 2016, dated 2021).
# Structures can show the parent of a compound that is named as a salt. Where two headings read alike, the source gives them in different places.
# Key:
# [1] = system: erythroid progenitor cells (EPCs); assay: Fetal hemoglobin (HbF) ELISA in day 7 erythroid progenitor cells; assay type: cell-based, human; settings: Homo sapiens, Erythroid progenitor cell;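 for EPC ELISA (pEC50 category): for fetal hemoglobin induction normalized to vehicle-treated cells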
# Method in brief: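 Day 7 EPCs from human bone marrow CD34+ cells were plated at 1,000 cells/well in media with 3 U/mL rhEPO. They were exposed to a 22-point dilution ([…]) for 5 days at 37 °C. Lysate HbF was measured by sandwich ELISA (OD450) and normalized to DMSO control wells.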
# [2] = molecular target: DNMT1 (Homo sapiens, UniProt P26358); assay: DNMT1 biochemical activity, breaklight assay and/or SPA assay; settings: for IC50 / DNMT1 BioChemical (pIC50 category): binned activity in either the breaklight or the SPA assay
# [3] = read-out: DNMT1 BioChemical (pIC50 category) (converted)
# [4] = HbF ELISA, day 7 EPCs, 5 days, read-out: EPC ELISA (pEC50 category) (converted)
# DNMT1, sequence (P26358 whole entry, looked up): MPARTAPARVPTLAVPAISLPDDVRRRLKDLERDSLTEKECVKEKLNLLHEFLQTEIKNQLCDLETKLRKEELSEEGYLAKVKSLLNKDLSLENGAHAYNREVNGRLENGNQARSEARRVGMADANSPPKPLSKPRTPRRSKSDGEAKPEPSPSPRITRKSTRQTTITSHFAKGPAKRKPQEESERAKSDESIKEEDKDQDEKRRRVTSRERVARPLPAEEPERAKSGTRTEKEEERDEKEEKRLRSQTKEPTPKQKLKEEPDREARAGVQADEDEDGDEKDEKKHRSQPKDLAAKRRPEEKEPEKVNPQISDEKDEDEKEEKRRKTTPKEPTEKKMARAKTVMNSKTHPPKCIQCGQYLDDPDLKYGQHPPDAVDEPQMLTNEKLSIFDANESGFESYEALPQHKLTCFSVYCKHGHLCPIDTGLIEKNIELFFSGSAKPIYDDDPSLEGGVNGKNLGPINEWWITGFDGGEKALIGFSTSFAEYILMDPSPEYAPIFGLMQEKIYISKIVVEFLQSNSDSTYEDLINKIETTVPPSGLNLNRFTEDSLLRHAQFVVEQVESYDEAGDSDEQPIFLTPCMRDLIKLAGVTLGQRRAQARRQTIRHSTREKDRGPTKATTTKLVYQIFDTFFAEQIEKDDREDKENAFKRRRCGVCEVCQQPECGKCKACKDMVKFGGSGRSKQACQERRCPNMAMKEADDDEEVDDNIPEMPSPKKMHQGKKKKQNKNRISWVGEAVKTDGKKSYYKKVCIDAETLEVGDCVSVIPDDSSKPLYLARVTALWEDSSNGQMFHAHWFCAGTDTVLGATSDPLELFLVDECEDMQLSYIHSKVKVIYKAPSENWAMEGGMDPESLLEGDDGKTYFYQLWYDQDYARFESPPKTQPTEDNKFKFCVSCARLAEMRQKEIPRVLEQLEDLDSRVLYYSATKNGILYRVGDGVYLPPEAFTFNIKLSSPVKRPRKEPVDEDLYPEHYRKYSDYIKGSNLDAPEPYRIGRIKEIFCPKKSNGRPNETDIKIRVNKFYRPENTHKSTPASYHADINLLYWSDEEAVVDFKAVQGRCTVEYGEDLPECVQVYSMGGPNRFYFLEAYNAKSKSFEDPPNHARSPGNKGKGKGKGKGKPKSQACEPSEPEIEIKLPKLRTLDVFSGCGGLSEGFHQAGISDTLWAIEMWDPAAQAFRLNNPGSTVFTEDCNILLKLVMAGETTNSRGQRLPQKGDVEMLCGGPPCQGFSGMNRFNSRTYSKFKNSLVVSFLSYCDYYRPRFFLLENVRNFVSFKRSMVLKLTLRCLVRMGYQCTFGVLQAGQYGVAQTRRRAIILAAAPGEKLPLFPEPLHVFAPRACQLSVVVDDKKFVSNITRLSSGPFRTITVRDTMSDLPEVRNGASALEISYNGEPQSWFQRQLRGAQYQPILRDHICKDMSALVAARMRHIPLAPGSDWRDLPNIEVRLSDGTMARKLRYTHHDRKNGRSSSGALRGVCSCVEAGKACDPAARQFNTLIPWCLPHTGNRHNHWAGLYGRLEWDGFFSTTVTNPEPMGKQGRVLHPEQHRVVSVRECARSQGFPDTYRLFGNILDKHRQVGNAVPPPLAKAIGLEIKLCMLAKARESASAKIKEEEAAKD
Structure (SMILES),"IC50 [2, 3] [nM]","EC50 [1, 4] [nM]",other results
"CCc1c(C#N)c(SC(C(N)=O)c2ccccc2)nc(N(C)C)c1C#N (stereo not shown) [Compound A, 2-{[3,5-dicyano-6-(dimethylamino)-4-ethylpyridin-2-yl]sulfanyl}-2-phenylacetamide]",,,"EC50 ([1]; day 7 EPCs, 5 days at 37° C, read-out: increase in HbF, average pEC50 (converted)): 316 nM"
"N#Cc1c(SC(C(N)=O)c2ccncc2)nc(N2CCOCC2)c(C#N)c1C1CC1 (stereo not shown) [Example 9, 2-((3,5-dicyano-4-cyclopropyl-6-morpholinopyridin-2-yl)thio)-2-(pyridin-4-yl)acetamide]",316 to 1000,> 31600,
"CCc1c(C#N)c(SC(C(N)=O)c2ccccc2)nc(N2CCC23CCNCC3)c1C#N (stereo not shown) [Example 38, 2-((3,5-Dicyano-4-ethyl-6-(1,7-diazaspiro[3.5]nonan-1-yl)pyridin-2-yl)thio)-2-phenylacetamide trifluoroacetate]",,,IC50 ([2]; DNMT1 BioChemical (pIC50 category)): 316 to 1000 nM; EC50 ([1]; read-out: EPC ELISA (pEC50 category) (converted)): 316 to 1000 nM
"CN1CCN(C2CCN(c3nc(SC(C(N)=O)c4ccccc4)c(C#N)c(C4CC4)c3C#N)CC2)CC1 (stereo not shown) [Example 40, 2-((3,5-Dicyano-4-cyclopropyl-6-(4-(4-methylpiperazin-1-yl)piperidin-1-yl)pyridin-2-yl)thio)-2-phenylacetamide]",,< 316,DNMT1 BioChemical (pIC50 category) [2]: D (Category D: ≥6.5)
"CCc1c(C#N)c(N[C@@H](C(N)=O)c2ccccc2)nc(N2CCCNCC2)c1C#N [Example 41, (R)-2-((3,5-dicyano-6-(1,4-diazepan-1-yl)-4-ethylpyridin-2-yl)amino)-2-phenylacetamide]",316 to 1000,1000 to 31600,
"CC(Sc1nc(N2CCCNCC2)c(C#N)c(C2CC2)c1C#N)C(N)=O (stereo not shown) [Example 46, 2-((3,5-dicyano-4-cyclopropyl-6-(1,4-diazepan-1-yl)pyridin-2-yl)thio)propanamide]",316 to 1000,> 31600,
"N#Cc1c(SC(C(N)=O)c2ccccc2)nc(N2CCOC(CO)C2)c(C#N)c1C1CC1 (stereo not shown) [Example 63, 2-((3,5-Dicyano-4-cyclopropyl-6-(2-(hydroxymethyl)morpholino)pyridin-2-yl)thio)-2-phenylacetamide]",316 to 1000,316 to 1000,
"CN1CCN(CC2CCN(c3nc(SC(C(N)=O)c4ccccc4)c(C#N)c(C4CC4)c3C#N)CC2)CC1 (stereo not shown) [Example 125, 2-((3,5-Dicyano-4-cyclopropyl-6-(4-((4-methylpiperazin-1-yl)methyl)piperidin-1-yl)pyridin-2-yl)thio-2-phenylacetamide trifluoroacetate]",,< 316,"DNMT1 BioChemical (pIC50 category) [2]: D (Category D: ≥6.5); average pIC50 against DNMT1 ([2]; breaklight assay and/or SPA assay, repeated experimental runs): > 6.5"

# Now from value to compound, other results behind:
"IC50 [2, 3] [nM]","EC50 [1, 4] [nM]",Structure (SMILES),other results
316 to 1000,1000 to 31600,"CCc1c(C#N)c(SC(C(N)=O)c2ccccc2)nc(N2CCNC(=O)CC2)c1C#N (stereo not shown) [Example 8, 2-{[3,5-dicyano-4-ethyl-6-(5-oxo-1,4-diazepan-1-yl)pyridin-2-yl]sulfanyl}-2-phenylacetamide]",
316 to 1000,1000 to 31600,"CCc1c(C#N)c(SC(C(N)=O)c2ccccc2)nc(N2CCN(CC)CC2)c1C#N (stereo not shown) [Example 35, 2-((3,5-dicyano-4-ethyl-6-(4-ethylpiperazin-1-yl)pyridin-2-yl)thio)-2-phenylacetamide]",
316 to 1000,1000 to 31600,"CCc1c(C#N)c(SC(C(N)=O)c2ccccc2)nc(N2CCC(O)CC2)c1C#N (stereo not shown) [Example 48, 2-((3,5-Dicyano-4-ethyl-6-(4-hydroxypiperidin-1-yl)pyridin-2-yl)thio)-2-phenylacetamide]",
316 to 1000,< 316,"CCc1c(C#N)c(SC(C(N)=O)c2ccccc2)nc(N2CCNCC2)c1C#N (stereo not shown) [Example 55, 2-((3,5-Dicyano-4-ethyl-6-(piperazin-1-yl)pyridin-2-yl)thio)-2-phenylacetamide]",
,< 316,"CCc1c(C#N)c(SC(C(N)=O)c2ccccc2)nc(N2CCCN(C)CC2)c1C#N (stereo not shown) [Example 56, 2-((3,5-Dicyano-4-ethyl-6-(4-methyl-1,4-diazepan-1-yl)pyridin-2-yl)thio)-2-phenylacetamide]",DNMT1 BioChemical (pIC50 category) [2]: D (Category D: ≥6.5)
316 to 1000,316 to 1000,"CCc1c(C#N)c(SC(C(N)=O)c2ccccc2)nc(N2CCOCC2)c1C#N (stereo not shown) [Example 57, 2-((3,5-Dicyano-4-ethyl-6-morpholinopyridin-2-yl)thio)-2-phenylacetamide]",
